The text below walks through data of patent publication US8426426B2, “Gyrase inhibitors and uses thereof” (Vertex Pharmaceuticals Incorporated, priority 2002, dated 2013).

One test relates to S. aureus. Briefly: Susceptibility testing in liquid media (MIC assay) against S. aureus. It counts as cell-based. The following applies: 35° C. overnight (16 to 20 hours); for MIC: Staphylococcus aureus. The protocol:
(§1) Compounds of this invention were tested for antimicrobial activity by susceptibility testing in liquid media. Such assays were performed within the guidelines of the latest NCCLS document governing such practices: “M7-A5 Methods for dilution Antimicrobial Susceptibility Tests for Bacteria that Grow Aerobically; Approved Standard—Fifth Edition (2000)”. Other publications such as “Antibiotics in Laboratory Medicine” (Edited by V. Lorian, Publishers Williams and Wilkins, 1996) provide essential practical techniques in laboratory antibiotic testing.
(§2) Several discrete bacterial colonies (3 to 7) from a freshly streaked plate were transferred to an appropriate rich broth medium such as MHB, supplemented where appropriate for the more fastidious organisms. This was grown overnight to high density followed by a 1 or 2-thousand-fold dilution to give an inoculation density of between 5×10^5 and 5×10^6 CFU per mL. Alternatively, the freshly picked colonies can be incubated at 37° C. for about 4 to 8 hours until the culture equals or exceeds a turbidity of a 0.5 McFarland standard (approximately 1.5×10^8 cells per mL) and diluted to give the same CFU per mL as above. In a more convenient method, the inoculum was prepared using a commercially available mechanical device (the BBL PROMPT System) that involves touching five colonies directly with a wand, containing crosshatch grooves at its bottom, followed by suspension of the bacteria in an appropriate volume of saline. Dilution to the appropriate inoculum cell density was made from this cell suspension. The broth used for testing consists of MHB supplemented with 50 mg per L of Ca^2+ and 25 mg per L of Mg^2+. Standard dilution panels of control antibiotics were made and stored as in the NCCLS standard M7-A5, the dilution range typically being in the 128 μg per mL to 0.015 μg per mL (by 2-fold serial dilution). The test compounds were dissolved and diluted fresh for experimentation on the same day; the same or similar ranges of concentration as above being used. The test compounds and controls were dispensed into a multiwell plate and test bacteria added such that the final inoculation was approximately 5×10^4 CFU per well and the final volume was 100 μL. The plates were incubated at 35° C. overnight (16 to 20 hours) and checked by eye for turbidity or quantitated with a multiwell plate reader. […] Such determinations were also compared to the appropriate tables contained in the above two publications to ensure that the range of antibacterial activity is within the acceptable range for this standardized assay.
(§3) The compound numbers correspond to the compound numbers in Table 1.

Another test deals with S. pneumoniae. Put plainly: Susceptibility testing in liquid media (MIC assay) against S. pneumoniae. In kind it is cell-based. The note with it: Streptococcus pneumoniae, 35° C. overnight (16 to 20 hours). As for the experimental part: as §1, §2, §3

In brackets after ≈: the same amount, converted by molar mass. Bounds are passed on as bounds.

As for `CCNC(=O)Nc1nc2cc(-c3cncnc3)cc(C(=O)NC)c2[nH]1` [Compound I-7], the MIC – broadly, the lowest concentration found to suppress growth – in the test on S. aureus was above 1 µg/mL. As for `CCNC(=O)Nc1nc2cc(-c3cccnc3)cc(C(=O)OC)c2[nH]1` [Compound I-1, 2-(3-Ethyl-ureido)-6-pyridin-3-yl-3H-benzoimidazole-4-carboxylic acid methyl ester], the MIC in the test on S. pneumoniae and with S. aureus was at most 0.5 µg/mL each time.

As to `CCNC(=O)Nc1nc2cc(-c3cccnc3)cc(C(=O)c3nccn3CC)c2[nH]1` [Compound I-29], the MIC against S. pneumoniae and against S. aureus was at most 0.5 µg/mL each time. As for `CCC/C(=N\OC)c1cc(-c2cccnc2)cc2nc(NC(=O)NCC)[nH]c12` [Compound I-39], the MIC in the test on S. pneumoniae and against S. aureus was at most 0.5 µg/mL each time. As for `CCCC(=O)c1cc(-c2cccnc2)cc2nc(NC(=O)NCC)[nH]c12` [Compound I-20], the MIC in the test with S. pneumoniae and in the test with S. aureus was at most 0.5 µg/mL each time. In the test with S. aureus, `CCNC(=O)Nc1nc2cc(-c3cccnc3)cc(C(=O)NC)c2[nH]1` [Compound I-16] yielded an MIC above 1 µg/mL. On to `CCNC(=O)Nc1nc2cc(-c3cccnc3)cc(C(=O)NCc3ccccc3)c2[nH]1` [Compound I-17], for which the values for the minimal inhibitory concentration (MIC) against S. pneumoniae and in the test with S. aureus were at most 0.5 µg/mL and 0.5 to 1 µg/mL (≈ 1.21 to 2.41 µM), respectively. Regarding `CCNC(=O)Nc1nc2cc(-c3cccnc3)c(F)c(C(=O)OC)c2[nH]1` [Compound I-3], the MIC in the test on S. aureus is at most 0.5 µg/mL. With `CCNC(=O)Nc1nc2cc(-c3cccnc3)cc(C(=O)CC(C)C)c2[nH]1` [Compound I-24], the minimum inhibitory concentration (MIC) in the test on S. pneumoniae and against S. aureus was at most 0.5 µg/mL each time. For the compound `CCNC(=O)Nc1nc2cc(-c3cccnc3)cc(C(=O)c3cn(C)cn3)c2[nH]1` [Compound I-30], the MIC in the test with S. pneumoniae is at most 0.5 µg/mL; with S. aureus, above 1 µg/mL. The like results for `CCNC(=O)Nc1nc2cc(-c3cncnc3)cc(C(=O)OC)c2[nH]1` [Compound I-5] were, in that order, at most 0.5 µg/mL and at most 0.5 µg/mL. The like results for `CCOC(=O)Nc1nc2cc(-c3cccnc3)cc(C(=O)CC)c2[nH]1` [Compound I-44, (7-Propionyl-5-pyridin-3-yl-1H-benzoimidazol-2-yl)-carbamic acid ethyl ester] were, in that order, at most 0.5 µg/mL and above 1 µg/mL. The corresponding values for `CCNC(=O)Nc1nc2cc(-c3cccnc3)cc(C(=O)C3CC3)c2[nH]1` [Compound I-25] are at most 0.5 µg/mL and at most 0.5 µg/mL. As for `CCNC(=O)Nc1nc2cc(-c3cccnc3)cc(C(=O)OC(C)C)c2[nH]1` [Compound I-33], the MIC against S. pneumoniae and against S. aureus was at most 0.5 µg/mL in each case. Consider `CCNC(=O)Nc1nc2cc(-c3ccn(C)c(=O)c3)c(F)c(C(=O)OC)c2[nH]1` [Compound I-35], for which the MIC in the test with S. pneumoniae and with S. aureus was at most 0.5 µg/mL each time.

`CCNC(=O)Nc1nc2cc(-c3cccnc3)c(F)c(C(=O)NC)c2[nH]1` [Compound I-6]: in the test on S. aureus, the MIC was 0.5 to 1 µg/mL (≈ 1.4 to 2.81 µM). Regarding `CCNC(=O)Nc1nc2cc(-c3cccnc3)cc(C(=O)CN(C)C)c2[nH]1` [Compound I-4], the MIC with S. pneumoniae was above 1 µg/mL. With `CCNC(=O)Nc1nc2cc(-c3cccnc3)cc(C(=O)OCC)c2[nH]1` [Compound I-34], the MIC in the test with S. pneumoniae and against S. aureus was at most 0.5 µg/mL in each case.

Take `CCNC(=O)Nc1nc2cc(-c3cccnc3)cc(C(=O)CCc3ccccn3)c2[nH]1` [Compound I-31]: the MIC with S. pneumoniae and with S. aureus was at most 0.5 µg/mL in each case.

For the compound `CCNC(=O)Nc1nc2cc(-c3cccnc3)cc(C(=O)C3CCCCC3)c2[nH]1` [Compound I-11], the MIC in the test on S. pneumoniae and against S. aureus was at most 0.5 µg/mL in each case.

In the case of `CCNC(=O)Nc1nc2cc(-c3cccnc3)cc(/C(=N/O)C3CCCC3)c2[nH]1` [Compound I-43], the MIC against S. pneumoniae and in the test with S. aureus was at most 0.5 µg/mL in each case.

For `CCNC(=O)Nc1nc2cc(-c3cccnc3)cc(C(=O)C3CCCC3)c2[nH]1` [Compound I-28], the MIC against S. pneumoniae and in the test on S. aureus was at most 0.5 µg/mL in each case. Turning to `CCNC(=O)Nc1nc2cc(-c3cccnc3)cc(/C(CC)=N/OC)c2[nH]1` [Compound I-38], the MIC with S. pneumoniae and against S. aureus was at most 0.5 µg/mL throughout.

As for `CCNC(=O)Nc1nc2cc(-c3cccnc3)cc(C(=O)CCCCO)c2[nH]1` [Compound I-37], the MIC was at most 0.5 µg/mL against S. pneumoniae and 0.5 to 1 µg/mL (≈ 1.31 to 2.62 µM) against S. aureus. In turn, `CCNC(=O)Nc1nc2cc(-c3cccnc3)cc(C(=O)Nc3cc(C)[nH]n3)c2[nH]1` [Compound I-15] registered a minimum inhibitory concentration (MIC) in the test with S. aureus above 1 µg/mL. Consider `CCNC(=O)Nc1nc2cc(-c3cccnc3)cc(C(=O)C(C)CC)c2[nH]1` (centres unmarked) [Compound I-21], for which the MIC in the test on S. pneumoniae and with S. aureus was at most 0.5 µg/mL in each case. Regarding `CCNC(=O)Nc1nc2cc(-c3cncnc3)cc(C(=O)CC)c2[nH]1` [Compound I-23], the MIC in the test with S. pneumoniae and against S. aureus was at most 0.5 µg/mL each time. Regarding `CCNC(=O)Nc1nc2cc(-c3cc(C)n(Cc4ccccn4)c(=O)c3)cc(C(=O)OC)c2[nH]1` [Compound I-32], the MIC in the test on S. pneumoniae and against S. aureus was at most 0.5 µg/mL in each case. Turning to `CCNC(=O)Nc1nc2cc(-c3cccnc3)cc(/C(=N/OCC)C3CC3)c2[nH]1` [Compound I-41], the MIC in the test on S. pneumoniae and in the test on S. aureus was at most 0.5 µg/mL in each case. As for `CCNC(=O)Nc1nc2cc(-c3cccnc3)cc(C(C)=O)c2[nH]1` [Compound I-18], the MIC with S. pneumoniae and in the test on S. aureus was at most 0.5 µg/mL in each case. Regarding `CCNC(=O)Nc1nc2cc(-c3cccnc3)cc(C(=O)C(C)C)c2[nH]1` [Compound I-22], the MIC in the test with S. pneumoniae and against S. aureus was at most 0.5 µg/mL in each case. Consider `CCNC(=O)Nc1nc2cc(-c3cccnc3)cc(/C(=N\O)C3CCCC3)c2[nH]1` [Compound I-42], for which the MIC in the test on S. pneumoniae and against S. aureus was at most 0.5 µg/mL throughout. Take `CCNC(=O)Nc1nc2cc(-c3cccnc3)cc(C(=O)CC)c2[nH]1` [Compound I-19]: the MIC against S. pneumoniae and with S. aureus was at most 0.5 µg/mL in each case. Take `CCNC(=O)Nc1nc2cc(-c3cccnc3)cc(/C(=N/OC)C3CC3)c2[nH]1` [Compound I-40, 1-[4-(Cyclopropyl-methoxyimino-methyl)-6-pyridin-3-yl-1H-benzoimidazol-2-yl]-3-ethyl-urea]: the minimal inhibitory concentration (MIC) with S. pneumoniae and in the test with S. aureus was at most 0.5 µg/mL throughout. `CCNC(=O)Nc1nc2cc(-c3cccnc3)cc(C(=O)NCCO)c2[nH]1` [Compound I-13] showed an MIC in the test with S. aureus above 1 µg/mL.

For `CCNC(=O)Nc1nc2cc(-c3cccnc3)cc(C(=O)c3nccn3C)c2[nH]1` [Compound I-26], the MIC in the test with S. pneumoniae and against S. aureus was at most 0.5 µg/mL each time. “1-(7-Cyclohexanecarbonyl-5-pyridin-3-yl-1H-benzoimidazol-2-yl)-3-ethyl-urea [Compound I-14]”: the “MIC (Activity) against S. aureus” value against S. aureus is “C (an MIC of greater than 1.0 μg/mL)”. `CCNC(=O)Nc1nc2cc(-c3ccn(C)c(=O)c3)c(F)c(C(=O)NC)c2[nH]1` [Compound I-36]: the results for the MIC with S. pneumoniae and in the test on S. aureus were at most 0.5 µg/mL and above 1 µg/mL, respectively.
